In ChEMBL document CHEMBL4219047, “Optimization of peptide-based polyagonists for treatment of diabetes and obesity” (Bioorg Med Chem, 2018):

Key:
Glucagon receptor [1] = molecular target: T1, Glucagon receptor (Homo sapiens, UniProt P47871); assay: Agonist activity at human GCG receptor expressed in CHO cells assessed as increase in cAMP level by TR-FRET assay; type: functional, cell-based
[2] = molecular target: Glucagon-like peptide 1 receptor (Homo sapiens, UniProt P43220); assay: Agonist activity at human GLP1 receptor expressed in CHO cells assessed as increase in cAMP level by TR-FRET assay; type: functional, cell-based
[3] = molecular target: T2, Glucagon-like peptide 1 receptor (Mus musculus, UniProt O35659); assay: Agonist activity at mouse GLP1 receptor expressed in CHO cells assessed as increase in cAMP level by TR-FRET assay; type: functional, cell-based
T2 sequence (O35659 whole entry): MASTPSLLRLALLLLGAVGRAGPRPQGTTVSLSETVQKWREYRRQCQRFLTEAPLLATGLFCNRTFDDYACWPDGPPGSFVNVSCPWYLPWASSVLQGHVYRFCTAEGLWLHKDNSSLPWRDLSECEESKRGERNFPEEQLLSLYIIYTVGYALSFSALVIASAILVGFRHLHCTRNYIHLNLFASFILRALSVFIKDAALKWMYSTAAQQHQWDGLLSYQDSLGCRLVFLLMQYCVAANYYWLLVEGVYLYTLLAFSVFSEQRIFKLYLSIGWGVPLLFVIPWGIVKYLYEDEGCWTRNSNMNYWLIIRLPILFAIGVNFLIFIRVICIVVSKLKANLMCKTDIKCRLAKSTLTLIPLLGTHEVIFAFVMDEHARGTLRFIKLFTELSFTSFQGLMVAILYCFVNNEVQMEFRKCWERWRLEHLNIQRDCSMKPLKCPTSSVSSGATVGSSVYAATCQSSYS

Glucagon receptor [4] = molecular target: Glucagon receptor (Mus musculus, UniProt Q61606); assay: Agonist activity at mouse GCG receptor expressed in CHO cells assessed as increase in cAMP level by TR-FRET assay; type: functional, cell-based
Glucagon receptor [5] = molecular target: T1, Glucagon receptor; assay: Agonist activity at human GCG receptor expressed in CHO cells assessed as increase in cAMP level by TR-FRET assay relative to glucagon; type: functional, cell-based
Mus musculus = species: Mus musculus; assay: Selectivity ratio of EC50 for mouse GLP1 receptor to EC50 for mouse GCG receptor

T1 sequence (P47871 whole entry): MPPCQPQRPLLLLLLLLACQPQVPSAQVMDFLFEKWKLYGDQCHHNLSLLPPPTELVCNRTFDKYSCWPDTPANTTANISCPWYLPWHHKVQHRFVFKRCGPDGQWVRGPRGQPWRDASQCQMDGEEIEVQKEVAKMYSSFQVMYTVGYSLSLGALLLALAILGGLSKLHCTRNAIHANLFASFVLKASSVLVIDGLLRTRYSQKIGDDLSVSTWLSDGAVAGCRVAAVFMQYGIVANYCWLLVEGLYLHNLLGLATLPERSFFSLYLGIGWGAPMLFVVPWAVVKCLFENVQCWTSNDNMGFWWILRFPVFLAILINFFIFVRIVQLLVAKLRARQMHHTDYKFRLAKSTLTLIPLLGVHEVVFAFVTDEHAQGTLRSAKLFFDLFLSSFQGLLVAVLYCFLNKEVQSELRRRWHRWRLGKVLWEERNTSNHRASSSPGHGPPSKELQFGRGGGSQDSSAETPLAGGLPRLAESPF
Sequence of Glucagon-like peptide 1 receptor (Homo sapiens, UniProt P43220) (P43220 whole entry): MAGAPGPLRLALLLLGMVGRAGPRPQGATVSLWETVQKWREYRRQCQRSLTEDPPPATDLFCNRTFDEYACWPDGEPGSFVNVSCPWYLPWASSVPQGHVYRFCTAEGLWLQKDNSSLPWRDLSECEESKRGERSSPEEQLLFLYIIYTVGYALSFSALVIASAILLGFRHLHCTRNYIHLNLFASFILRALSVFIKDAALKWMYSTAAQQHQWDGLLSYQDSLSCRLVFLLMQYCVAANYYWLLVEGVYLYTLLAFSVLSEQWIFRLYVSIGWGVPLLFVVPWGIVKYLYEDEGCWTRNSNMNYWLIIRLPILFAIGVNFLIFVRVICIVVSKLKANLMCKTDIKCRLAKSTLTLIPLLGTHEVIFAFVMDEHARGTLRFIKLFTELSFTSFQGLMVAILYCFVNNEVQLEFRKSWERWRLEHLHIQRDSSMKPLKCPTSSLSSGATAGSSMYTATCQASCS
Sequence of Glucagon receptor (Mus musculus, UniProt Q61606) (Q61606 whole entry): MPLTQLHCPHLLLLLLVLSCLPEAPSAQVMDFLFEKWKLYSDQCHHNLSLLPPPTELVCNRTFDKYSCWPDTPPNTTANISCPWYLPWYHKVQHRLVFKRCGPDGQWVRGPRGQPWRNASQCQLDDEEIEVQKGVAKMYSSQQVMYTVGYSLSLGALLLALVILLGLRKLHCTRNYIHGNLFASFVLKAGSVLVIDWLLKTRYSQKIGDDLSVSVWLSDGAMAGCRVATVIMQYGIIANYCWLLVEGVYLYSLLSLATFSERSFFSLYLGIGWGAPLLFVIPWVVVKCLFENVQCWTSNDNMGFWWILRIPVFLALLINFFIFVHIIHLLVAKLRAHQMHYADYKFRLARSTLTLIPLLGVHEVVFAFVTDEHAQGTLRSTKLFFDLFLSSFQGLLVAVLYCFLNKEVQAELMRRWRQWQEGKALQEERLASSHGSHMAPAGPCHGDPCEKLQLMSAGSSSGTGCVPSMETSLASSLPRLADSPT

EC50 (Glucagon receptor [1]): > 1000 nM | EC50 [2]: 0.09 nM | EC50 [3]: 0.03 nM | EC50 (Glucagon receptor [4]): > 100 nM | Activity (Glucagon receptor [5]): < 0.05% | Ratio EC50 (Mus musculus): < 0.001
SMILES: CC[C@H](C)[C@H](NC(=O)[C@H](Cc1ccccc1)NC(=O)[C@H](CCC(=O)O)NC(=O)[C@H](CCCCN)NC(=O)[C@H](C)NC(=O)[C@H](C)NC(=O)[C@H](CCC(N)=O)NC(=O)CNC(=O)[C@H](CCC(=O)O)NC(=O)[C@H](CC(C)C)NC(=O)[C@H](Cc1ccc(O)cc1)NC(=O)[C@H](CCCCN)NC(=O)[C@H](CO)NC(=O)[C@@H](NC(=O)[C@H](CC(=O)O)NC(=O)[C@H](CO)NC(=O)[C@@H](NC(=O)[C@H](Cc1ccccc1)NC(=O)[C@@H](NC(=O)CNC(=O)[C@H](CCC(=O)O)NC(=O)[C@H](C)NC(=O)[C@@H](N)Cc1cnc[nH]1)[C@@H](C)O)[C@@H](C)O)C(C)C)C(=O)N[C@@H](C)C(=O)N[C@@H](Cc1c[nH]c2ccccc12)C(=O)N[C@@H](CC(C)C)C(=O)N[C@H](C(=O)N[C@@H](CCCCN)C(=O)NCC(=O)N[C@@H](CCCNC(=N)N)C(N)=O)C(C)C
